In the assay the test system is Mus musculus. Briefly: Antiinflammatory activity in ovalbumin-sensitised Balb/c mouse assessed as reduction in ovalbumin-induced eosinophil count in bronchoalveolar lavage fluid at 1 mg/kg, ip administered 1 hr before and 7 hrs after ovalbumin challenge measured after 8 hrs by haemocytometeric analysis. Format: functional. The note with it: Lung, route intraperitoneal.

Here are results for one compound from ChEMBL document CHEMBL2040789, “Optimization of the Central Core of Indolinone-Acetic Acid-Based CRTH2 (DP2) Receptor Antagonists” (ACS Med Chem Lett, 2011).

Consider `C[C@@H]1C[C@H]2[C@@H]3CCC4=CC(=O)C=C[C@]4(C)[C@@]3(F)[C@@H](O)C[C@]2(C)[C@@]1(O)C(=O)CO` [DEXAMETHASONE], for which the inhibition in vivo at 1 mg/kg is 83%.

As a reminder, the inhibition in vivo is the percentage by which the read-out fell short of the control.
